Assay results reported in US20190376110A1, “METHOD TO DETECT BACTERIAL ACTIVITY AND PATHOGENICITY WITH BIODYNAMIC SENTINELS” (Purdue Research Foundation, priority 2018, published 2019).

Experiments:
E. coli pellet = experiment: Biodynamic imaging / fluctuation spectroscopy of E. coli bacterial pellet; type: cell-based
Description: (§1) Various bacterial specimens can be prepared in a pellet form. A pellet is a condensed form of bacteria which allows them to be carried and handled more efficiently. Bacteria are grown in LB medium for 4 to 12 hours. When culturing is done, the bacteria density in medium is approximately 10^8 #/mL. To make the pellet, 25 mL of bacteria medium is stored in a centrifuge tube. The medium is centrifuged by 10,000 rpm for 10 minutes (Avanti J-20 XPI). During centrifugation, a pellet is formed at the bottom of a centrifuge tube.
(§2) There are two different sample plate preparations. A monoplex plate is a plate preparation format to test a rapid response of bacteria in single wells. The time resolution of the spectrum measurement is 2 minutes. A multiplex plate is a mode for measuring slow behavior using a measuring period is 30 minutes. For the multiplex, 16 wells are measured in parallel. A plate is firmly fixed on a translational stage controlled at 37 degrees Celsius or other temperature depending on the cell type and the bacterium. The plate is covered with a semi-permeable membrane which prevents the medium from drying out while permitting air molecule exchange.
Backscattered light from a specimen forms a speckle field consisting of many speckles with sizes determined by the point-spread-function of the imaging optics, and the speckle is delivered by a 4-f system (L1 and L2, f=15 cm). After the 4-f system, a lens (L3, f=5 cm) conducts Fourier transformation of the speckle and the Fourier image is formed at a Fourier plane on a Fourier-domain pixel array (such as a CCD).
To gain a more specific understanding of the effect of the nutrient shock, […] is used in a mode called […]. This breaks down the effects of a perturbation into a range of frequencies that are altered by the perturbation. Fluctuation spectroscopy is used routinely in biodynamic imaging applications for drug assays on cancer tissue. In the context of the bacterial pellets, the perturbation similarly can cause spectral changes whose specific frequencies relate to specific speeds of biological processes involved.

[1] = system: Listeria monocytogenes infection of DLD-1 sentinel; experiment: Tissue sentinel antibiotic assay, DLD-1 spheroids infected by Listeria; type: cell-based
Description: As one example of an infection assay, a DLD-1 colon cancer cell line is prepared as a tissue fragment sentinel. DLD-1 cell lines are cultured for 24 hours and form a spheroid shape after incubation. Spheroids are immobilized within two hours by poly-D-lysine after placing spheroids on a bottom of plate.
To obtain infection spectra, bacteria in a pellet form can be re-suspended by diluting a pellet with various media (5% NaCl, growth medium, PBS etc.). The diluting process produces a uniform concentration of bacteria, and the bacterial concentration can be controlled by controlling volumes of media.
as §2
One of the most important applications of the tissue sentinels is to serve as a dynamic substrate for the study of antibiotic sensitivity and resistance. […]

Listeria pellet = details: short-time response within 30 minutes of dose
Description: as §1, §2
(§3) Backscattered light from a specimen forms a speckle field consisting of many speckles with sizes determined by the point-spread-function of the imaging optics, and the speckle is delivered by a 4-f system (L1 and L2, f=15 cm). […]

Salmonella pellet = experiment: Biodynamic imaging / fluctuation spectroscopy of Salmonella bacterial pellet; type: cell-based; details: short-time response within 30 minutes of dose
Description: as §1, §2, §3

[Na+].[OH-] [NaOH]
spectrogram response of E. coli pellet to chemical agent (E. coli pellet; FIG. 10): broad inhibition of activity
low frequency response after adding chemical agents (E. coli pellet; FIG. 10 legend): highly suppressed

CC1(C)S[C@@H]2[C@H](NC(=O)Cc3ccccc3)C(=O)N2[C@H]1C(=O)O [penicillin, penicillin G]
time after antibiotic at which weak infection signal emerges ([1]; L. mono, penicillin alone): about 8 hours
inhibition of L. mono strain by antibiotic ([1]; penicillin alone without streptomycin, FIG. 22): not completely inhibited

CCO [ethanol]
response of highest frequency (E. coli pellet; 70% ethanol): relatively unaffected

O=C(O)c1cn(C2CC2)c2cc(N3CCNCC3)c(F)cc2c1=O [Cipro, Ciprofloxacin]
response of highest frequencies to Cipro (Listeria pellet): not affected
response of highest frequencies to Cipro (Salmonella pellet): not affected
response of highest frequencies to Cipro (E. coli pellet; short-time response within 30 minutes of dose): not affected
